The values that follow come from patent US9776979B2, “EBI2 modulators” (Sanford-Burnham Medical Research Institute, priority 2013, dated 2017).

In this assay the target is EBI2 (Homo sapiens, UniProt P32249). The experiment in a line: Cell-based luminescent assay (EBI2 modulation). As for the experimental part:
Cell-Based Luminescent Assay
To assess EBI2 modulation, the compounds described herein were assayed in the following cell-based luminescent assay:
1) Plated 600 cells/well in 4 uL of assay media into columns 1-48 of a 1536-well assay plate, using a liquid dispenser.
2) Centrifuged plates at 1000 rpm for 1 minute and covered with lids.
3) Incubated overnight at 37° C., 100% relative humidity, 5% CO2.
1) Centrifuged compound plates containing compounds described herein at 500 rpm for 1 minute.
2) Added compounds into assay plate col 5-48 to final concentration 4-5 uM. Added matching amount of DMSO to positive and negative control wells in columns 1-4.
3) Dispensed 2 ul/well of assay media to columns 1-2 for the positive control wells.
4) Added 2 ul/well of 400 nM 7a,25-OHC (final assay concentration=80 nM) in assay media to columns 3-48 for the negative control and test compound wells.
5) Centrifuged plates at 1000 rpm for 1 minute and re-lid plates.
6) Incubated plates at 37° C., 100% relative humidity, 5% CO2 for 60 minutes.
7) Following 60 minute incubation, delivered 2.5 uL of Detection Reagent solution to each assay plate (Columns 1-48) using a liquid handler.
8) Centrifuged plates at 2000 rpm for 2 minutes and re-lid plates.
9) Incubated plates for 60 minutes at 25 degrees in the dark.
10) Read plates using the Viewlux, Envision or other suitable plate reader using a luminescence detection.
The experimental values were normalized by the difference between values from neutral and stimulator control wells in each plate. Then normalized data was corrected to remove systematic plate patterns due to artifacts such as dispensing tip issues etc.

Where [1] appears, read: cell-based luminescence, 7a,25-OHC final assay concentration 80 nM, 60 minutes incubation, read-out: IC50.

Read-outs that look alike come from different tables or passages of the source.

Chain of EBI2 (P32249 whole entry): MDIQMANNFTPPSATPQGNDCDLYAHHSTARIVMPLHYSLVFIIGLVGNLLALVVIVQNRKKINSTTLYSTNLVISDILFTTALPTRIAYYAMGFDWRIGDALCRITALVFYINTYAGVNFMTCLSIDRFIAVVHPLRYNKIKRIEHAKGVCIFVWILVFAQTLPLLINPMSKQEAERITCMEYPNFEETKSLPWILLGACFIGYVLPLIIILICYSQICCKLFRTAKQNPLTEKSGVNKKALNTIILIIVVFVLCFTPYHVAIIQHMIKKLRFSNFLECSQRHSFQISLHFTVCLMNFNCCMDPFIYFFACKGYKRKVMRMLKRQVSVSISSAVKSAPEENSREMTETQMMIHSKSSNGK

Regarding “4-(diphenylmethyl)piperazinyl indol-6-yl ketone [Compound C370]”, under setting [1], the IC50 is under 100 nM. With “4-(diphenylmethyl)piperazinyl pyrrolo[2,3-c]pyridin-2-yl ketone [Compound C431]”, the IC50 under setting [1] fell in the range of 100 to 500 nM.

As to “4-[(2,4-difluorophenyl)methyl]piperazinyl 5-(trifluoromethyl)indol-2-yl ketone [Compound C412]”, the IC50 under setting [1] was 100 to 500 nM. For the molecule “4-[(3,5-dimethylphenyl)methyl]piperazinyl 5-methylindol-2-yl ketone [Compound C359]”, under setting [1], the IC50 lay within 100 to 500 nM. The same measure, in the same setting: the figure for “4-[(4-bromophenyl)sulfonyl]piperazinyl 5-chloroindol-2-yl ketone [Compound C333]” is under 100 nM; for “4-[(4-bromophenyl)sulfonyl]piperazinyl 5-methylindol-2-yl ketone [Compound C143]” it is under 100 nM.

As for “4-[(4-chlorophenyl)carbonyl]piperazinyl 5-(trifluoromethyl)indol-2-yl ketone [Compound C64]”, the IC50 under setting [1] is under 100 nM.

On to “4-[(4-chlorophenyl)methyl]piperazinyl 2-(trifluoromethyl)benzimidazol-5-yl ketone [Compound C170]”, for which, under setting [1], the IC50 was 500 to 5000 nM. On the same count and under the same terms, the figure for “4-bromophenyl 4-{[4-(methylethyl)phenyl]methyl}piperazinyl ketone [Compound C176]” is 500 to 5000 nM. On the same count and under the same terms, the figure for “4-{3-[4-(diphenylmethyl)piperazinyl]-3-oxoprop-1-ynyl}benzenecarbonitrile [Compound C326]” is under 100 nM; for “4-{[2-fluoro-4-(trifluoromethyl)phenyl]carbonyl}piperazinyl 5-(trifluoromethyl)indol-2-yl ketone [Compound C360]” it is under 100 nM. The same measure, in the same setting: the figure for “4-{[3,5-bis(trifluoromethyl)phenyl]carbonyl}piperazinyl 5-(trifluoromethyl)indol-2-yl ketone [Compound C330]” is under 100 nM.

“4-{[3-fluoro-4-(trifluoromethyl)phenyl]methyl}piperazinyl 5-(trifluoromethyl)indol-2-yl ketone [Compound C389]”: under setting [1], the IC50 was under 100 nM. The same measure, in the same setting: as for “4-{[4-((2E)-3-phenylprop-2-enoyl)piperazinyl]methyl}benzenecarbonitrile [Compound C335]”, the figure is under 100 nM. Turning to “4-{[4-fluoro-2-(trifluoromethyl)phenyl]methyl}piperazinyl 5-(trifluoromethyl)indol-2-yl ketone [Compound C418]”, the IC50 under setting [1] lay in the range of 100 to 500 nM. For the molecule “4-{[4-fluoro-3-(trifluoromethyl)phenyl]methyl}piperazinyl 5-(trifluoromethyl)indol-2-yl ketone [Compound C415]”, under setting [1], the IC50 was 100 to 500 nM. The same measure, in the same setting: as for “4-{[(4-bromophenyl)sulfonyl]amino}piperidyl 5-chloroindol-2-yl ketone [Compound C306]”, the figure is under 100 nM; as for “5-bromoindol-2-yl 4-[(4-chlorophenyl)carbonyl]piperazinyl ketone [Compound C85]”, under 100 nM. On the same count and under the same terms, the figure for “5-bromoindol-2-yl 4-[(4-chlorophenyl)methyl]piperazinyl ketone [Compound C303]” is under 100 nM; for “5-chloroindol-2-yl 4-[(4-(3-pyridyl)phenyl)carbonyl]piperazinyl ketone [Compound C254]” it is under 100 nM; for “5-chloroindol-2-yl 4-{[4-(4-chlorophenyl)phenyl]sulfonyl}piperazinyl ketone [Compound C172]” it is 500 to 5000 nM. The same measure, in the same setting: as for “5-methylindol-2-yl 4-(3-pyridylmethyl)piperazinyl ketone [Compound C458]”, the figure is 100 to 500 nM; as for “5-methylindol-2-yl 4-(phenylethyl)piperazinyl ketone [Compound C148]”, under 100 nM. Consider “5-methylindol-2-yl 4-benzylpiperazinyl ketone [Compound C376]”, for which the IC50 under setting [1] was under 100 nM. The same measure, in the same setting: the figure for “6-bromoindol-2-yl 4-[(4-chlorophenyl)carbonyl]piperazinyl ketone [Compound C239]” is under 100 nM; for “6-bromoindol-2-yl 4-[(4-chlorophenyl)methyl]piperazinyl ketone [Compound C471]” it is 100 to 500 nM. Same read-out and setting: the figure for “6-fluoroindol-2-yl 4-[(4-fluorophenyl)carbonyl]piperazinyl ketone [Compound C425]” is 100 to 500 nM; for `O=C(/C=C/c1ccc(Br)cc1)N1CCN(C(=O)c2ccc(Cl)cc2)CC1` [Compound C1, (E)-3-(4-bromophenyl)-1-(4-(4-chlorobenzoyl)piperazin-1-yl) prop-2-en-1-one] it is under 100 nM; for `O=C(/C=C/c1ccc(Br)cc1)N1CCN(C(=O)c2ccc(P(=O)(O)O)cc2)CC1` [Compound C3, (E)-(4-(4-(3-(4-bromophenyl)acryloyl)piperazine-1-carbonyl)phenyl)phosphonic acid] it is under 100 nM. The same measure, in the same setting: as for `Cc1ccc(C(=O)N2CCN(C(=O)/C=C/c3ccc(Br)cc3)CC2)cc1` [Compound C4, (2E)-3-(4-bromophenyl)-1-{4-[(4-methylphenyl)carbonyl]piperazinyl} prop-2-en-1-one], the figure is under 100 nM; as for `O=C(/C=C/c1ccc(Cl)c(Cl)c1)N1CCN(C(c2ccccc2)c2ccccc2)CC1` [Compound C5, (2E)-3-(3,4-dichlorophenyl)-1-[4-(diphenylmethyl)piperazinyl] prop-2-en-1-one], under 100 nM. Consider `O=C(/C=C/c1ccc(Cl)c(Cl)c1)N1CCN(C(=O)c2ccc(C(F)(F)F)cc2)CC1` [Compound C6, (2E)-3-(3,4-dichlorophenyl)-1-(4-{[4-(trifluoromethyl)phenyl]carbonyl}piperazinyl) prop-2-en-1-one], for which the half-inhibitory concentration (IC50) under setting [1] is under 100 nM. For `COc1ccc(C(=O)N2CCN(C(=O)C#Cc3ccc(Cl)cc3)CC2)cc1` [Compound C7, 3-(4-chlorophenyl)-1-{4-[(4-methoxyphenyl)carbonyl]piperazinyl}prop-2-yn-1-one], the IC50 under setting [1] was under 100 nM.

For `COc1ccc(C(=O)N2CCN(C(=O)C#Cc3ccc(C)cc3)CC2)cc1` [Compound C8, 1-{4-[(4-methoxyphenyl)carbonyl]piperazinyl}-3-(4-methylphenyl)prop-2-yn-1-one], under setting [1], the IC50 is under 100 nM. Still for that read-out and setting: as for `COc1ccc(C(=O)N2CCN(C(=O)C#Cc3ccc(C(F)(F)F)cc3)CC2)cc1` [Compound C9, 1-{4-[(4-methoxyphenyl)carbonyl]piperazinyl}-3-[4-(trifluoromethyl)phenyl]prop-2-yn-1-one], the figure is under 100 nM. The same measure, in the same setting: the figure for `COc1ccc(C(=O)N2CCN(C(=O)C#Cc3ccc(Br)cc3)CC2)cc1` [Compound C10, 3-(4-bromophenyl)-1-{4-[(4-methoxyphenyl)carbonyl]piperazinyl}prop-2-yn-1-one] is under 100 nM; for `COc1ccc(C(=O)N2CCN(C(=O)C=Cc3ccc(Cl)c(Cl)c3)CC2)cc1` [Compound C11, 3-(3,4-dichlorophenyl)-1-{4-[(4-methoxyphenyl)carbonyl]piperazinyl}prop-2-en-1-one] it is under 100 nM; for `COc1ccc(C(=O)N2CCN(C(=O)C#Cc3ccc(Cl)c(Cl)c3)CC2)cc1` [Compound C12, 3-(3,4-dichlorophenyl)-1-{4-[(4-methoxyphenyl)carbonyl]piperazinyl}prop-2-yn-1-one] it is under 100 nM. `O=C(/C=C/c1ccc(Br)cc1)N1CCC(Nc2ccccc2)CC1` [Compound C13, (2E)-3-(4-bromophenyl)-1-[4-(phenylamino)piperidyl]prop-2-en-1-one] yielded an IC50 of under 100 nM. Consider `O=C(/C=C/c1ccc(Br)cc1)N1CCN(C(=O)c2ccccc2)CC1` [Compound C14, (2E)-3-(4-bromophenyl)-1-[4-(phenylcarbonyl)piperazinyl]prop-2-en-1-one], for which, under setting [1], the IC50 was under 100 nM. Molecule `O=C(/C=C/c1ccc(Br)cc1)N1CCC(Nc2cc(F)cc(F)c2)CC1` [Compound C15, (2E)-1-{4-[(3,5-difluorophenyl)amino]piperidyl}-3-(4-bromophenyl)prop-2-en-1-one] returned an IC50 of under 100 nM. `O=C(C#Cc1ccc(Cl)cc1)N1CCN(C(=O)c2ccc(Cl)cc2)CC1` [Compound C16, 3-(4-chlorophenyl)-1-{4-[(4-chlorophenyl)carbonyl]piperazinyl}prop-2-yn-1-one]: the IC50 under setting [1] is under 100 nM. Same read-out and setting: the figure for `COc1ccc(/C=C/C(=O)N2CCN(C(c3ccccc3)c3ccccc3)CC2)cc1` [Compound C17, (2E)-1-[4-(diphenylmethyl)piperazinyl]-3-(4-methoxyphenyl)prop-2-en-1-one] is under 100 nM; for `O=C(C#Cc1cccc(Cl)c1Cl)N1CCN(C(=O)c2ccc(F)cc2)CC1` [Compound C18, 3-(2,3-dichlorophenyl)-1-{4-[(4-fluorophenyl)carbonyl]piperazinyl}prop-2-yn-1-one] it is under 100 nM; for `O=C(/C=C/c1ccc(Cl)c(Cl)c1)N1CCN(C(=O)c2ccc(F)cc2)CC1` [Compound C20, (2E)-3-(3,4-dichlorophenyl)-1-{4-[(4-fluorophenyl)carbonyl]piperazinyl}prop-2-en-1-one] it is under 100 nM.
